# Data: patent publication US9434711B2 (Janssen Pharmaceutica, NV, priority 2007, dated 2016)
# pIC50: −log10 of the molar value. Like-named read-outs stand apart in the source and are kept apart here.
# Columns and labels:
# male Sprague-Dawley rats = assay: Cold-Evoked Cardiovascular Pressor Responses (anesthetized rat cold pressor paradigm); assay type: in vivo; details: HPbCD, 1.5 hours relative to Cold Challenge, Na salt form
# Text: Compounds of the formula (I) can be tested in animals and humans for their ability to mitigate cardiovascular pressor responses evoked by cold exposure. Seasonal environmental cooling is directly associated with elevated blood pressure and an increased incidence of coronary events in human populations worldwide (Barnett, A G et al. J Epidemiol Community Heath 2005, 59 551-557). Cold-evoked pulmonary hypertention and cold aggravation of chronic obstructive pulmonary disease are clinical indications susceptible to heightened cardiopulmonary sensitivity to cold (Marno P et al. Eur Respiratory Review 2006, 15 (101): 185.; Acikel M et al Int J of Cardiol (2004) 97: 187-192). The clinical cold pressor test assesses changes in blood pressure (BP) and cold pain perception during a 2-3 minute immersion of one hand into ice water. […] Compounds of the formula (I) can be studied in an anesthetized rat cold pressor paradigm to determine whether TRPM8 antagonism would interfere with the blood pressure pressor response to cold stimulation of the forepaws. Male Sprague-Dawley rats (300-450 g) anesthetized with sodium pentobarbital are instrumented with a jugular catheter and an indwelling carotid artery cannula connected to a pressure transducer. Vehicle (e.g. 20% HPbCD in sterile water) or test compound is infused (1 mL/kg) over one minute through the intravenous catheter. Ten minutes later both forelimbs are packed in crushed ice for 5 minutes. Alternatively, the test compound and vehicle treatments may be administered orally at an appropriated time prior to the surgical cannulations and cold challenge. Percent changes in mean arterial pressure in response to this cold stimulus are calculated for vehicle and test compound pretreatments. Percent inhibition attributed to treatment with test compound is then determined using the following formula: % Inhibition=[1−(cold evoked % change in BP post-test compound/cold evoked % change in BP post-vehicle)]×100.
# rat TRPM8 = rat TRPM8 (Rattus norvegicus (Rat), UniProt Q8R455); assay: In Vitro Rat TRPM8 Functional Assay (Ca2+ fluorescence, icilin EC80); assay type: cell-based; details: read-out: rTRPM8 IC50
# Protocol: HEK293 cells are routinely grown as monolayer in Dulbecco's minimum essential medium supplemented with 10% FBS, 1 mM L-glutamine, 100 units/mL penicillin and 100 ug/mL streptomycin. Cells are maintained in 5% CO2 at 37° C.
# For functional expression of TRPM8, the full-length cDNA encoding human and rat TRPM8 are subcloned into pCI-NEO mammalian expression vectors. The expression constructs are transiently transfected into HEK293 cells according to the FuGENE 6 Transfection Reagent® (ROCHE) instructions. Within twenty-four hours, transiently transfected cells are harvested and either seeded directly into assay plate or cryopreserved for future usage. […]
# Maximal fluorescence intensity (FI) achieved upon addition of icilin is exported from the FDSS and further analyzed using GraphPad Prism 3.02 (Graph Pad Software Inc., CA, U.S.A.) where data is normalized to percent of maximal response. The dose response curves from the average of quadruplicate wells for each data point are analyzed by using nonlinear regression of either sigmoidal dose response or sigmoidal dose response (variable slope). Finally, the IC50 values are calculated with the best-fit dose curve determined by Prism.
# Male Sprague Dawley rats = assay: Rightward Shift of Icilin Dose Effect Curve in Rats; assay type: in vivo; details: Rattus norvegicus; compound 3 mg/kg p.o., 60 pre-icilin; icilin i.p.; read-out: Icilin ED50, mg/kg, i.p., compound pretreatment
# Protocol: Male Sprague Dawley rats (200-400 g, Charles River Labs, n=6-9/treatment) were administered icilin in a suitable vehicle (e.g. PEG-400, 10% Solutol) at 0.1-30 mg/kg, i.p. Spontaneous “wet-dog” shakes were counted 10-20 minutes post-icilin in order to generate a icilin dose-effect curve. A compound of the present invention was administered orally in hydroxypropyl-β-cyclodextrin 60 minutes before icilin challenge to assess the compound's ability to inhibit spontaneous “wet-dog” shakes (WDS) produced by a range of icilin doses. The ED50 of the icilin dose-effect curve generated in the presence of TRPM8 antagonist may be compared to that generated in the presence of vehicle to determine the magnitude of rightward shift as shown below in Table 7.
# Sequence of rat TRPM8 (Q8R455 whole entry): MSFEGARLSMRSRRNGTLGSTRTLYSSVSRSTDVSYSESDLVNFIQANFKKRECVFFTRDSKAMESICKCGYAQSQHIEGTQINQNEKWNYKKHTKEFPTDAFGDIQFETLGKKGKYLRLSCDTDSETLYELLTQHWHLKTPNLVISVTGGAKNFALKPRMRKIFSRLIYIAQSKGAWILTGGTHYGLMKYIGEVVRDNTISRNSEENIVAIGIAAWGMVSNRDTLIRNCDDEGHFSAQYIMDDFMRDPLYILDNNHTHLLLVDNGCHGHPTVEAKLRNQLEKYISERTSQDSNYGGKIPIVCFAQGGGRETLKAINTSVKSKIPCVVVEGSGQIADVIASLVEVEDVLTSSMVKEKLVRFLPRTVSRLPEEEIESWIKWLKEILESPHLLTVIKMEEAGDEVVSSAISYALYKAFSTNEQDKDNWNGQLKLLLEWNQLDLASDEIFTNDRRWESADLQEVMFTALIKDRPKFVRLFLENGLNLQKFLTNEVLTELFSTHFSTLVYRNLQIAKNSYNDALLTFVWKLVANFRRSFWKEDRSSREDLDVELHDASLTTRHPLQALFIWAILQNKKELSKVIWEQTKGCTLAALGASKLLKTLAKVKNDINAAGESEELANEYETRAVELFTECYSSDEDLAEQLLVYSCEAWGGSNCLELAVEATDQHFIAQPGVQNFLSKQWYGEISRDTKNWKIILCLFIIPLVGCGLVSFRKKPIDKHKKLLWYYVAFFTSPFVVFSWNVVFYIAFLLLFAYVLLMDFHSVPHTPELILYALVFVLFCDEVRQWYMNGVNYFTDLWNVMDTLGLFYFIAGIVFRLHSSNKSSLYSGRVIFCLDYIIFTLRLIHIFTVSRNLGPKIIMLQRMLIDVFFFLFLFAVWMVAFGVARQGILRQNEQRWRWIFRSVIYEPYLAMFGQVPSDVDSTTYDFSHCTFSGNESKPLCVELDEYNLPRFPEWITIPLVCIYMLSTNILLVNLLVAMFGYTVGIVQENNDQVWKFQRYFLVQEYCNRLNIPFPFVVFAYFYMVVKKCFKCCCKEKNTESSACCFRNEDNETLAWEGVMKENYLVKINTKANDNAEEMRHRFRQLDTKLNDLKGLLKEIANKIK
pIC50 (rat TRPM8; Freshly transfected cells),pIC50 (rat TRPM8; Cryopreserved cells),Structure (SMILES),"Percent Inhibition, relative to vehicle (male Sprague-Dawley rats; dose 1 p.o.) [%]","Percent Inhibition, relative to vehicle (male Sprague-Dawley rats; dose 3 p.o.) [%]","Percent Inhibition, relative to vehicle (male Sprague-Dawley rats; dose 10 p.o.) [%]","Percent Inhibition, relative to vehicle (male Sprague-Dawley rats; dose 30 p.o.) [%]",ED50 (Male Sprague Dawley rats) [mg/kg]
8.30,–,"Cc1c(N(Cc2ccc(F)c(C(F)(F)F)c2)S(=O)(=O)c2ccc(C(=O)O)cc2)sc2ccccc12 [Compound 306, N-(3-Methyl-benzo[b]thiophen-2-yl)-N-(4-fluoro-3-trifluoromethyl-benzyl)-4-carboxy-benzenesulfonamide]",16,41,62,75,2.96
–,8.74,"Cc1c(N(Cc2ccc(OC(F)(F)F)cc2)S(=O)(=O)c2ccc(C(=O)O)cc2)sc2ccccc12 [Compound 496, N-(3-Methyl-benzo[b]thiophen-2-yl)-N-(4-trifluoromethoxy-benzyl)-4-carboxy-benzenesulfonamide]",–,–,–,–,–
